From article PMC8335727 (Inorganic Chemistry, 2021)

Legend:
[1] = parameters: method as in earlier work; conditions: cited from earlier work
Colo320 cells = assay: Annexin-V-FITC/PI apoptosis induction assay (flow cytometry); format: cell-based, human; conditions: 3 h induction
Experimental: To gain further insights into the cytotoxic behavior of the compounds, apoptosis induction by lead compounds HL^1 and [Cu(L^2)Cl] was investigated by a flow cytometry analysis of multidrug-resistant Colo320 cells stained with Annexin-V-FITC and propidium iodide (PI).
Colo320 cells were treated at the indicated concentration of the drugs. The dual parametric dot plots that combine the Annexin-V (FL1) and PI (FL3) fluorescence show the viable cell population in the lower-left quadrant Annexin-V–/PI– (Q4), the early apoptotic cells in the lower-right quadrant Annexin-V+/PI– (Q3), and the late apoptotic and necrotic cells in the upper-right quadrant Annexin-V+/PI+ (Q2). […]
2.5.3. Mechanisms of cell death: assay for apoptosis induction
The assay was carried out for selected compounds using an Annexin V-FITC Apoptosis Detection
Kit (Cat. No. APOAF-50TST) from Sigma according to the manufacturer's instructions. The
concentration of the Colo320 cell suspension was adjusted to approximately 0.5 × 10^6 cells per
mL in RPMI medium and the cell suspension was distributed in 1 mL aliquots into a 24-well plate,
and then incubated overnight at 37 °C and 5% CO2. On the following day, the medium was
removed and replaced by 1 mL RPMI medium containing the compounds except the control
samples. Colo320 cells were incubated in the presence of the compounds at 4 and 8 μM (HL1), or
0.25 and 0.50 μM (Cu(HL2)Cl2) in the 24-well plate at 37 °C for 3 h, and 12H-
controls. After the incubation period the samples were washed with PBS and fresh RPMI medium
was added to the samples. The cells were incubated overnight at 37 °C and 5% CO2. The next day,
200 μL 0.25% Trypsin (Trypsin-Versen) was added to the samples until cells appeared detached
followed by the addition of 400 μL of RPMI medium supplemented with 10% bovine serum. The
cells were collected in Eppendorf tubes and centrifuged at 2000 g for 2 min. The harvested cells
were resuspended in fresh serum free RPMI medium culture medium. After this step, the apoptosis
assay was carried out according to the instructions of the manufacturer. The fluorescence was
analyzed immediately using a ParTec CyFlow flow cytometer (Partec GmbH, Münster, Germany). […]

SW480 cells = assay: Cell cycle distribution by flow cytometry; format: cell-based, human; conditions: 0.01 μM; 24 h
Excerpt: […] TEXT PRINTED IN THE PICTURE: (A) no label printed: S: 27.7% | (B) no label printed: S: 33.8% | (C) no label printed: S: 44.0% | (D) no label printed: S: 46.5% DOUBTS OF THE COPYIST ABOUT THIS PICTURE: No substance labels are printed in the picture, only the panel letters A-D. / The phase label "S" is printed only in panel A. Applying it to the percentages in panels B, C and D is assumed from where the marker line sits.

[2] = ref [67]; cited from earlier work
[3] = system: SW480, MES-SA, MES-SA/Dx5, HL60, 41M, SK-BR-3; parameters: method as in PMID 32336116, PMID 22189939, PMID 31250199; conditions: several human cancer cells; ref [36],[58],[80]; read-out: IC50 values reported; cited from earlier work
Colo320 = assay: MTT cytotoxicity assay, Colo320; format: cell-based; conditions: Homo sapiens, COLO 320, 72 h of exposure
Experimental: (§1) The in vitro cytotoxicity of the TSCs HL^1–HL^3, copper(II) complexes Cu(HL^1)Cl2, [Cu(L^2)Cl], and Cu(HL^3)Cl2, and oxidized TSCs HL^1a′, HL^1a″, and HL^2c′·CH3COOH was tested in the doxorubicin-sensitive Colo205 and the multidrug-resistant Colo320 human colonic adenocarcinoma cell lines as well as in normal human embryonal lung fibroblast cells (MRC-5) by the colorimetric MTT assay. […]
(§2) 2.5. In vitro cell studies
(§3) 2.5.1. Cell lines and culture conditions
(§4) All cell culture reagents were obtained from Sigma-Aldrich and plastic ware from Sarstedt
(§5) (Germany). Doxorubicin-sensitive human colonic Colo 205 and multidrug resistant
(§6) Colo 320/MDR-LRP adenocarcinoma cell lines were purchased from LGC Promochem,
(§7) Teddington, UK. The cells were cultured in Roswell Park Memorial Institute (RPMI) 1640
(§8) medium supplemented with 10% heat-inactivated fetal bovine serum, 2 mM L-glutamine, 1 mM
(§9) Na-pyruvate and 100 mM Hepes. The cell lines were incubated at 37°C, in a 5% CO2, 95% air
(§10) MRC-5 human embryonal lung fibroblast cell line (ATCC CCL-171) was purchased from LGC
(§11) Promochem, Teddington, UK. The cell line was cultured in Eagle’s Minimal Essential Medi um
(§12) (EMEM, containing 4.5 g/L glucose) supplemented with a non-essential amino acid mixture, a
(§13) selection of vitamins and 10% heat-inactivated fetal bovine serum. The cells were incubated at
(§14) 37°C, in a 5% CO2, 95% air atmosphere. All cell lines were detached with Trypsin-Versene
(§15) (EDTA) solution for 5 min at 37 °C.
(§16) The tested compounds were dissolved in DMSO using 10 mM concentration. Then stock solutions
(§17) were diluted in complete culture medium in 96-well microtiter plates, and two-fold serial dilutions
(§18) of compounds were prepared in 100 µL of RPMI 1640, horizontally. The semi-adherent colonic
(§19) adenocarcinoma cells were treated with Trypsin -Versene (EDTA) solution. They were adjusted to
(§20) a density of 1×10^4 cells in 100 µL of RPMI 1640 medium, and were added to each well, with the
(§21) exception of the medium control wells. The final volume of the wells containing compounds and
(§22) cells was 200 µL. The culture were incubated at 37 °C for 72 h; at the end of the incubation period,
(§23) 20 µL of MTT solution (from a stock solution of 5 mg/mL) were added to each well. After
(§24) incubation at 37 °C for 4 h, 100 µL of SDS solution (10% in 0.01 M HCI) were added to each well
(§25) and the plates were further incubated at 37 °C overnight. The cell growth was determined using
(§26) both methods by measuring the optical density (OD) at 450 nm (ref. 620 nm) with a Multiscan EX
(§27) ELISA reader. Inhibition of the cell growth (expressed as IC 50: inhibitory concentration that
(§28) reduces by 50% the growth of the cells exposed to the tested compounds) was determined from
(§29) the sigmoid curve where 100 – ((ODsample ‒ ODmedium control)/(ODcell control ‒ ODmedium control)) × 100
(§30) values were plotted against the logarithm of compound concentrations. […]
(§31) 0.76 tyrosyl radical/polypeptide. Samples containing 20 µM mR2 in 50 mM HEPES buffer, pH
(§32) 7.50/100 mM NaCl, and 20 µM respective compound in 1% (v/v) DMSO/H2O, and 2 mM

Colo205 = assay: MTT cytotoxicity assay, Colo205; format: cell-based; conditions: Homo sapiens, COLO 205, 72 h of exposure
Experimental: as §1, §2, §3, §4, §5, §6, §7, §8, §9, §10, §11, §12, §13, §14, §15, §16, §17, §18, §19, §20, §21, §22, §23, §24, §25, §26, §27, §28, §29, §30, §31, §32

MRC-5 = assay: MTT cytotoxicity assay, MRC-5; format: cell-based; conditions: Homo sapiens, MRC5, 72 h of exposure
Experimental: as §2, §3
All cell culture reagents were obtained from Sigma-Aldrich and plastic ware from Sarstedt […]
as §10, §11, §12, §13, §14, §15, §16, §17, §18, §19, §20, §21, §22, §23, §24, §25, §26, §27, §28, §29, §30

mouse R2 RNR protein = target: T1, mouse R2 RNR protein (Mus musculus, UniProt P11157); assay: Tyrosyl radical reduction in mouse R2 RNR protein (EPR); format: biochemical; conditions: 20 μM compound
T1 construct: made in house
T1 sequence (P11157 1-390): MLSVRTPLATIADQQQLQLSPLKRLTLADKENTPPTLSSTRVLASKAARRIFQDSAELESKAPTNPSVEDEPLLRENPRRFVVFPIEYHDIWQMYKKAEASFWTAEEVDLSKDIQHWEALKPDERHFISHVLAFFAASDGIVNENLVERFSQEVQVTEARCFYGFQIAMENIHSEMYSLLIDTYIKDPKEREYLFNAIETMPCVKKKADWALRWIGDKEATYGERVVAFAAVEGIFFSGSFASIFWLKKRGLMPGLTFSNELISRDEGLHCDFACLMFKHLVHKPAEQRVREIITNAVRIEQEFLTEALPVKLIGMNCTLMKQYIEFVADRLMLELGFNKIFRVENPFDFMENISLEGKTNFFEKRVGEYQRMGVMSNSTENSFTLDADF
Experimental: The time-dependent tyrosyl radical reduction in mR2 RNR by equimolar concentrations of TSCs and their respective copper(II) complexes, under reducing conditions, is shown in Figure 15. […] The favorable impact of the copper(II) coordination on the HL^2 inhibitory activity is quite obvious, when the ability to quench the tyrosyl radical by HL^2 is compared to that of 2′.
The samples contained 20 μM mR2 in 50 mM HEPES buffer, pH 7.60/100 mM KCl, 20 μM compound in 1% (v/v) DMSO/H2O, and 2 mM DTT. […]
2.6. Tyrosyl radical reduction in mouse R2 RNR protein
The tyrosyl radical reduction in mR2 protein by HL1, HL2, HL3, Cu(HL1)Cl2, [Cu(L2)Cl],
Cu(HL3)Cl2, HL1a’, HL1a’’, and HL2c´·CH3COOH was measured by EPR spectroscopy at 30 K,
on a Bruker Elexsys II E540 EPR spectrometer with an Oxford Instruments ER 4112HV helium
cryostat, as described previously.12,13 mR2 protein was expressed, purified, and iron -reconstituted
as described previously, 14 and passed through a 5 mL HiTrap desalting column (GE Healthcare)
as §31, §32
dithiothreitol (DTT) were incubated for indicated times and quickly frozen in cold isopentane. The
same samples were used for repeated incubations at room temperature. […]
Furthermore, the intrinsic reaction coordinate (IRC) analysis was
performed to authenticate that the transition state pertains to the desired reaction coordinate. The
IRC calculations were done at the B3LYP/6-311++G(d,p) level of theory. Molecular orbitals were
drawn using Molekel software.17
3. Schemes for assignment of resonances in HL1 – HL3 and their isomers
Scheme S1. The atom numbering for the assignment of resonances in HL1 – HL3.
(1 picture or pasted object on this page, not shown here)

Compound: NC(=O)NO [hydroxyurea]
- redox potential [1]: +0.724 V

Compound: c1ccc2c(c1)Nc1c(ccc3ccccc13)S2 [M627, 12H-Benzophenothiazine, reference compound]
- Cell death % Q1 (Colo320 cells; 10 µM): 4.59%
- Early apoptosis % Q3 (Colo320 cells; 10 µM): 12.4%
- Late apoptosis and necrosis % Q2 (Colo320 cells; 10 µM): 31.5%
- Cell death % Q1 (Colo320 cells; 20 µM): 7.85%
- Early apoptosis % Q3 (Colo320 cells; 20 µM): 11.1%
- Late apoptosis and necrosis % Q2 (Colo320 cells; 20 µM): 26.1%

Compound: Nc1ccn([C@@H]2O[C@H](CO)[C@@H](O)C2(F)F)c(=O)n1 [Gemcitabine, reference compound]
- G1 phase cells (SW480 cells): 26.8%
- S phase cells (SW480 cells): 62.3%

Compound: N.N.[Cl][Pt][Cl] [cisplatin, reference compound]
- Cell death % Q1 (Colo320 cells; 15 µM): 1.64%
- Early apoptosis % Q3 (Colo320 cells; 15 µM): 1.68%
- Late apoptosis and necrosis % Q2 (Colo320 cells; 15 µM): 2.24%
- Cell death % Q1 (Colo320 cells; 30 µM): 0.79%
- Early apoptosis % Q3 (Colo320 cells; 30 µM): 4.90%
- Late apoptosis and necrosis % Q2 (Colo320 cells; 30 µM): 4.07%

Compound: C/C(=N\NC(N)=S)c1ccccn1 [AcTSC, 2-acetylpyridine TSC]
- log D7.4 [2]: +1.02
- IC50 [3]: 2.5 to 3.6 µM

Compound: Cc1cc(Nc2nnc(-c3ccccn3)s2)cc(C)c1O [HL^1a′]
- IC50 (Colo320): > 25 µM
- IC50 (Colo205): > 25 µM
- IC50 (MRC-5): > 25 µM
- effect on the tyrosyl radical content in the presence of DTT (mouse R2 RNR protein; 2 mM DTT): cause an increase in the radical content
- effect on the tyrosyl radical in the absence of DTT (mouse R2 RNR protein; no DTT): do not have an effect
